Reference: ChEMBL document CHEMBL4507264, “Data for DCP probe BAY-7598” (2021)

How the values were obtained:
[1] = target: T1, D(4) dopamine receptor (Homo sapiens) (UniProt P21917); conditions: Compound concentration 10.0 uM
T1 sequence (whole entry): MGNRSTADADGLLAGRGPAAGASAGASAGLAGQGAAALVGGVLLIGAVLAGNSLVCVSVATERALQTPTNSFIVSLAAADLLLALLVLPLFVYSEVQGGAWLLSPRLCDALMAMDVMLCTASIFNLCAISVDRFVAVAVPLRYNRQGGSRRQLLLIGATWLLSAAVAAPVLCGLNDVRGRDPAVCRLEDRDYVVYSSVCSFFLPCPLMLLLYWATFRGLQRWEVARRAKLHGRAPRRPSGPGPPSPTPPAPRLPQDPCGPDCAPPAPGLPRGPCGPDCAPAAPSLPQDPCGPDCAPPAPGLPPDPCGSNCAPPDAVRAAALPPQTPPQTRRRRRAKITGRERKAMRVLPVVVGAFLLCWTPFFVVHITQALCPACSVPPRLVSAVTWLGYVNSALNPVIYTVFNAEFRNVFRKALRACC

[2] = target: Serine/threonine-protein kinase MARK1 (Homo sapiens) (UniProt Q9P0L2); conditions: Compound concentration 1000.0 nM
[3] = target: Calcium/calmodulin-dependent protein kinase type II subunit gamma (Homo sapiens) (UniProt Q13555); conditions: Compound concentration 1000.0 nM
[4] = target: Homeodomain-interacting protein kinase 2 (Homo sapiens) (UniProt Q9H2X6); conditions: Compound concentration 1000.0 nM
[5] = target: Serine/threonine-protein kinase LATS2 (Homo sapiens) (UniProt Q9NRM7); conditions: Compound concentration 1000.0 nM
[6] = target: Calcium/calmodulin-dependent protein kinase type II subunit alpha (Homo sapiens) (UniProt Q9UQM7); conditions: Compound concentration 1000.0 nM
[7] = target: Serine/threonine-protein kinase WNK3 (Homo sapiens) (UniProt Q9BYP7); conditions: Compound concentration 1000.0 nM
[8] = target: Serine/threonine-protein kinase haspin (Homo sapiens) (UniProt Q8TF76); conditions: Compound concentration 1000.0 nM
[9] = target: Protein kinase C eta type (Homo sapiens) (UniProt P24723); conditions: Compound concentration 1000.0 nM
Sequence of Protein kinase C eta type (Homo sapiens) (P24723 whole entry): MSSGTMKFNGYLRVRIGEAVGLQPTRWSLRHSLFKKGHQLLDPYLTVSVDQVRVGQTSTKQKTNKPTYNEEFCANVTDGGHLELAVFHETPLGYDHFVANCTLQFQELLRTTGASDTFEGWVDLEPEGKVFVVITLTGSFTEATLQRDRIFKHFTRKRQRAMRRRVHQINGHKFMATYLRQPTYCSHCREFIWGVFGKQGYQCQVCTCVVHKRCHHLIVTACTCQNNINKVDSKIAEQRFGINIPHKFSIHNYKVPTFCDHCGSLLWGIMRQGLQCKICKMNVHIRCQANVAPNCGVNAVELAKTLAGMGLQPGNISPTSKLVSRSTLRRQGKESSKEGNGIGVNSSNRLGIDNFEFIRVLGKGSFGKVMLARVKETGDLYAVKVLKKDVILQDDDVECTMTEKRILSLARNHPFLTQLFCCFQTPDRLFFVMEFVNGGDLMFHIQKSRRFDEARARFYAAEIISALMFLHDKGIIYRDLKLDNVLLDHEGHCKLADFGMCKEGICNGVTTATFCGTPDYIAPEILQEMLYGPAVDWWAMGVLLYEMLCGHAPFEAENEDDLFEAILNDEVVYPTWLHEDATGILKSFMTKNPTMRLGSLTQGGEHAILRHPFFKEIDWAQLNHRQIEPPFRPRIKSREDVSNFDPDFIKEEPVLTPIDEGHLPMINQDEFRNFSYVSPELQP

[10] = target: Dual specificity protein kinase CLK2 (Homo sapiens) (UniProt P49760); conditions: Compound concentration 1000.0 nM
[11] = target: Cyclin-dependent kinase 4 (Homo sapiens) (UniProt P11802); conditions: Compound concentration 1000.0 nM
[12] = target: Tyrosine-protein kinase JAK2 (Homo sapiens) (UniProt O60674); conditions: Compound concentration 1000.0 nM
[13] = target: Myotonin-protein kinase (Homo sapiens) (UniProt Q09013); conditions: Compound concentration 1000.0 nM
[14] = target: Mitogen-activated protein kinase kinase kinase kinase 4 (Homo sapiens) (UniProt O95819); conditions: Compound concentration 1000.0 nM
[15] = test system: Tyrosine-protein kinase ABL1 (Homo sapiens), P00519 [F317I]; conditions: Compound concentration 1000.0 nM
[16] = target: Testis-specific serine/threonine-protein kinase 1 (Homo sapiens) (UniProt Q9BXA7); conditions: Compound concentration 1000.0 nM
[17] = target: Ephrin type-B receptor 3 (Homo sapiens) (UniProt P54753); conditions: Compound concentration 1000.0 nM
Sequence of Ephrin type-B receptor 3 (Homo sapiens) (P54753 whole entry): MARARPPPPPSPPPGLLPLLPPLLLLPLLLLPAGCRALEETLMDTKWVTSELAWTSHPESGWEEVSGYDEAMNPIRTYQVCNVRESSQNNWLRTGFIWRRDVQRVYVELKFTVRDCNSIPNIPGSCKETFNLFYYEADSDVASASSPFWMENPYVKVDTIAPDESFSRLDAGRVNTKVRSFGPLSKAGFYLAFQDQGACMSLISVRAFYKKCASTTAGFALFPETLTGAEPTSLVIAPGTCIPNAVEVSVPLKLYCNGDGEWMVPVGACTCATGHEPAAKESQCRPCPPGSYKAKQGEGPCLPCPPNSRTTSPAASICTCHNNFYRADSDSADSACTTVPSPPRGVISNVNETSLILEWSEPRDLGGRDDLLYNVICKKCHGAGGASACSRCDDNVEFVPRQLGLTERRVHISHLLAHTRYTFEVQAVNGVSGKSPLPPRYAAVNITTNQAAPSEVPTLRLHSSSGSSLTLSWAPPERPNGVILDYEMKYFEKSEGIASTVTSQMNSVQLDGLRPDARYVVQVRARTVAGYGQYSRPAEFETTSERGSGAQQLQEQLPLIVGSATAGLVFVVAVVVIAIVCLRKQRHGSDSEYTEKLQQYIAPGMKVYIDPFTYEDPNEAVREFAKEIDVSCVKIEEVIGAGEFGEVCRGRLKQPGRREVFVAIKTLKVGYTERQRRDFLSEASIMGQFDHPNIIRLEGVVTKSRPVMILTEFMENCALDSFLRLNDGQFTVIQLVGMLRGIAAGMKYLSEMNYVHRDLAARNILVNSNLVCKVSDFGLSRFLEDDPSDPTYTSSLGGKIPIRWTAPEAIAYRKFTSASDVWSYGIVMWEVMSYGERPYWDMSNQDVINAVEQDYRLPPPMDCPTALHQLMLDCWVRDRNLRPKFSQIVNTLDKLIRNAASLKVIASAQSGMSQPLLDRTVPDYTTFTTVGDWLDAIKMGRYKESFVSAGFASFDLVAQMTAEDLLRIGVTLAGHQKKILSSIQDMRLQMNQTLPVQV

[18] = target: Myosin light chain kinase 2, skeletal/cardiac muscle (Homo sapiens) (UniProt Q9H1R3); conditions: Compound concentration 1000.0 nM
[19] = target: Serine/threonine-protein kinase Nek2 (Homo sapiens) (UniProt P51955); conditions: Compound concentration 1000.0 nM
[20] = target: Serine/threonine-protein kinase PAK 4 (Homo sapiens) (UniProt O96013); conditions: Compound concentration 1000.0 nM
[21] = target: cAMP-dependent protein kinase catalytic subunit beta (Homo sapiens) (UniProt P22694); conditions: Compound concentration 1000.0 nM
[22] = target: 1-phosphatidylinositol 3-phosphate 5-kinase (Homo sapiens) (UniProt Q9Y2I7); conditions: Compound concentration 1000.0 nM
[23] = target: Serine/threonine-protein kinase 36 (Homo sapiens) (UniProt Q9NRP7); conditions: Compound concentration 1000.0 nM
[24] = target: NUAK family SNF1-like kinase 1 (Homo sapiens) (UniProt O60285); conditions: Compound concentration 1000.0 nM
Sequence of NUAK family SNF1-like kinase 1 (Homo sapiens) (O60285 whole entry): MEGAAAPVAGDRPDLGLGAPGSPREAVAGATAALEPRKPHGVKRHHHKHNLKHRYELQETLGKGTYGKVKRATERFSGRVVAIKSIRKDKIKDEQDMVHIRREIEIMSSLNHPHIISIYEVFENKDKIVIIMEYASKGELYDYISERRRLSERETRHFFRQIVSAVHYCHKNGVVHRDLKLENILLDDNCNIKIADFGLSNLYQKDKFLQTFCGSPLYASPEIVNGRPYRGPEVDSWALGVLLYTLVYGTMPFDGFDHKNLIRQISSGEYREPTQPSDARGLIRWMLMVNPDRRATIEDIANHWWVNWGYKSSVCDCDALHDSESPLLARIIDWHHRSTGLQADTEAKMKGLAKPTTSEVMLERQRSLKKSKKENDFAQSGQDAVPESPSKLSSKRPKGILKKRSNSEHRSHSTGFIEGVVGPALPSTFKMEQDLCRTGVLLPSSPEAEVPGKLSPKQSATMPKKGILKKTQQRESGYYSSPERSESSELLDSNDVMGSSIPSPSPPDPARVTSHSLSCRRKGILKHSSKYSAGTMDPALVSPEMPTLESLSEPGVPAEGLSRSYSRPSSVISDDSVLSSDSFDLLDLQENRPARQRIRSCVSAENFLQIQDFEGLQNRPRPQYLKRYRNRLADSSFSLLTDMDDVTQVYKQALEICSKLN

[25] = target: Serine/threonine-protein kinase Sgk3 (Homo sapiens) (UniProt Q96BR1); conditions: Compound concentration 1000.0 nM
Sequence of Serine/threonine-protein kinase Sgk3 (Homo sapiens) (Q96BR1 whole entry): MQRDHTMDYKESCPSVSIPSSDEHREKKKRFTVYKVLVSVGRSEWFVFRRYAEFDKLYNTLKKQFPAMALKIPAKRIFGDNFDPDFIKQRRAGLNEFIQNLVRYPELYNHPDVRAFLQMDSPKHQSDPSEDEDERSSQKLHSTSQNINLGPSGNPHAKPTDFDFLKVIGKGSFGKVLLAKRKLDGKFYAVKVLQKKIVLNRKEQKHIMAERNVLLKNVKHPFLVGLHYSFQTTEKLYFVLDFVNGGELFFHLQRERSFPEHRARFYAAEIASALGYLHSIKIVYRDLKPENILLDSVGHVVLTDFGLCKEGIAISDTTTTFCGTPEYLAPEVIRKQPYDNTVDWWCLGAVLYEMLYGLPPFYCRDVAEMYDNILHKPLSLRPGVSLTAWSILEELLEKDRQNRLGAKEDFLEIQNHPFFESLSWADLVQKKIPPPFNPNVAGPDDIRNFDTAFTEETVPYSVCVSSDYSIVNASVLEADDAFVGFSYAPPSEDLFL

[26] = target: D(3) dopamine receptor (Homo sapiens) (UniProt P35462); conditions: Compound concentration 10.0 uM
Sequence of D(3) dopamine receptor (Homo sapiens) (P35462 whole entry, canonical isoform): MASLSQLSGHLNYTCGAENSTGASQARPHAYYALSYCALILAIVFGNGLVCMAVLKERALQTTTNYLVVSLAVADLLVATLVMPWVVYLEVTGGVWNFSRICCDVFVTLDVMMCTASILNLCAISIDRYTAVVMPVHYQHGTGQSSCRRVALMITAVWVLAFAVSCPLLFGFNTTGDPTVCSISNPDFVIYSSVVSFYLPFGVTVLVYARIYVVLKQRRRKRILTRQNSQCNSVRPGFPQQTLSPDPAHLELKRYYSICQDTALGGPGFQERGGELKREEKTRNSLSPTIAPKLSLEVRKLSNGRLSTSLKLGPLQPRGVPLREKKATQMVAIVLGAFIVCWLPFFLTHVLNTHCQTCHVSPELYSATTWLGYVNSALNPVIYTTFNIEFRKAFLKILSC

[27] = test system: Phosphatidylinositol 4,5-bisphosphate 3-kinase catalytic subunit alpha isoform (Homo sapiens), P42336 [E542K]; conditions: Compound concentration 1000.0 nM
[28] = target: Histamine H1 receptor (Homo sapiens) (UniProt P35367); conditions: Compound concentration 10.0 uM
[29] = target: 5-hydroxytryptamine receptor 1E (Homo sapiens) (UniProt P28566); conditions: Compound concentration 10.0 uM
Sequence of 5-hydroxytryptamine receptor 1E (Homo sapiens) (P28566 whole entry): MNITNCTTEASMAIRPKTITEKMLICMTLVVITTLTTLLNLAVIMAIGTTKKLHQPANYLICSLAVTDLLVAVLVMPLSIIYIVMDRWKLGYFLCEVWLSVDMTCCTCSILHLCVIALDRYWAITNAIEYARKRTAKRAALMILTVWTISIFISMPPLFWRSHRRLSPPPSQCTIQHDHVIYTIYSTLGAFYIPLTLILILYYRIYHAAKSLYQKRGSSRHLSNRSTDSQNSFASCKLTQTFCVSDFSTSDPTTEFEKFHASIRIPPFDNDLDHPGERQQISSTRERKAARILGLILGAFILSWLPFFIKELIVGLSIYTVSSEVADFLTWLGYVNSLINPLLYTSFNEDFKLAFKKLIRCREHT

[30] = target: Delta-type opioid receptor (Homo sapiens) (UniProt P41143); conditions: Compound concentration 10.0 uM
[31] = target: Tyrosine-protein kinase ZAP-70 (Homo sapiens) (UniProt P43403); conditions: Compound concentration 1000.0 nM
[32] = target: Receptor-interacting serine/threonine-protein kinase 2 (Homo sapiens) (UniProt O43353); conditions: Compound concentration 1000.0 nM
[33] = target: Proto-oncogene tyrosine-protein kinase receptor Ret (Homo sapiens) (UniProt P07949); conditions: Compound concentration 1000.0 nM
[34] = target: Muscarinic acetylcholine receptor M3 (Homo sapiens) (UniProt P20309); conditions: Compound concentration 10.0 uM
Sequence of Muscarinic acetylcholine receptor M3 (Homo sapiens) (P20309 whole entry, looked up): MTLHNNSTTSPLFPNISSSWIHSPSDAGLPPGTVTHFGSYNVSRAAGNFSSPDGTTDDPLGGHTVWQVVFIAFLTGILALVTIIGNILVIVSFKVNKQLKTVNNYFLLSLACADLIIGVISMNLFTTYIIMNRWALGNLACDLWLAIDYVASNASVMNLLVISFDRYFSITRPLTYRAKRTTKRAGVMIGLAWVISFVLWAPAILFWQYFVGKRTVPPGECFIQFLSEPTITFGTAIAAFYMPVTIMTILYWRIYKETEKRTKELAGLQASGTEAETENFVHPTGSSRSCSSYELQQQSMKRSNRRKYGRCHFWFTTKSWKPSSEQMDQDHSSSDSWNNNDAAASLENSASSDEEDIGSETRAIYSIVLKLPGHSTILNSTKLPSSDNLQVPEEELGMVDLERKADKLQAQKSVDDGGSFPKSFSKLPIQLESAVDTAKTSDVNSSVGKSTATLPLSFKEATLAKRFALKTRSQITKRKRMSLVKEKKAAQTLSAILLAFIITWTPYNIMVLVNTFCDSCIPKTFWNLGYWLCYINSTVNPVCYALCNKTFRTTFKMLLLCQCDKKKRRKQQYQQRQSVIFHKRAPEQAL

[35] = target: Tyrosine-protein kinase Yes (Homo sapiens) (UniProt P07947); conditions: Compound concentration 1000.0 nM
[36] = test system: Epidermal growth factor receptor (Homo sapiens), P00533 [UNDEFINED MUTATION]; conditions: Compound concentration 1000.0 nM
[37] = target: Serine/threonine-protein kinase mTOR (Homo sapiens) (UniProt P42345); conditions: Compound concentration 1000.0 nM
[38] = target: Mitogen-activated protein kinase 15 (Homo sapiens) (UniProt Q8TD08); conditions: Compound concentration 1000.0 nM
[39] = target: Interferon-induced, double-stranded RNA-activated protein kinase (Homo sapiens) (UniProt P19525); conditions: Compound concentration 1000.0 nM
Sequence of Interferon-induced, double-stranded RNA-activated protein kinase (Homo sapiens) (P19525 whole entry): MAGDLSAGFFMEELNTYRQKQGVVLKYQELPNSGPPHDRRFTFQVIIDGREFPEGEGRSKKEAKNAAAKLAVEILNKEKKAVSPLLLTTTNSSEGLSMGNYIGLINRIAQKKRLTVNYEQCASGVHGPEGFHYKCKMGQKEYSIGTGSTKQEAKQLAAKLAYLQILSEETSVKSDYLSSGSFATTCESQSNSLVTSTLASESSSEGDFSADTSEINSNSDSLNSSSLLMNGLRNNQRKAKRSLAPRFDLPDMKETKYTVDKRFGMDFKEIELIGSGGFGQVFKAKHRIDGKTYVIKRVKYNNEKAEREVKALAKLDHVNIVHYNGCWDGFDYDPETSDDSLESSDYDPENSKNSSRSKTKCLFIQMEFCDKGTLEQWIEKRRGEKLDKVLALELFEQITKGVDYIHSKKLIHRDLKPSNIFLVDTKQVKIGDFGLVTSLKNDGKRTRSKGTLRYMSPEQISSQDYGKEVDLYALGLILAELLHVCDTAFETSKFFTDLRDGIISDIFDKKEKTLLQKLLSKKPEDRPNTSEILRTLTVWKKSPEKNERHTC

O=C(O)[C@@H]1[C@@H](Cn2nnc3ccccc3c2=O)CC[C@H]1C(=O)c1ccc(OCCC2CCOCC2)cc1 [BAY-694]
inactive: inhibition [1] 21.9% | residual activity [2] 100% | residual activity [3] 100% | residual activity [4] 100% | residual activity [5] 100% | residual activity [6] 100% | residual activity [7] 100% | residual activity [8] 88% | residual activity [9] 100% | residual activity [10] 100% | residual activity [11] 96% | residual activity [12] 74% | residual activity [13] 100% | residual activity [14] 93% | residual activity [15] 100% | residual activity [16] 100% | residual activity [17] 100% | residual activity [18] 100% | residual activity [19] 100% | residual activity [20] 89% | residual activity [21] 100% | residual activity [22] 87% | residual activity [23] 91% | residual activity [24] 84% | residual activity [25] 100% | inhibition [26] -4.94% | residual activity [27] 62% | inhibition [28] 1.6% | inhibition [29] 3.94% | inhibition [30] 15.9% | residual activity [31] 99% | residual activity [32] 97% | residual activity [33] 100% | inhibition [34] 5.09% | residual activity [35] 100% | residual activity [36] 95% | residual activity [37] 96% | residual activity [38] 100% | residual activity [39] 100%

O=C(O)[C@H]1[C@H](Cn2nnc3ccccc3c2=O)CC[C@@H]1C(=O)c1ccc(OCCC2CCOCC2)cc1 [BAY-7598]
inactive: inhibition [1] 12.5% | residual activity [2] 99% | residual activity [3] 90% | residual activity [4] 100% | residual activity [5] 100% | residual activity [6] 100% | residual activity [7] 100% | residual activity [8] 84% | residual activity [9] 89% | residual activity [10] 100% | residual activity [11] 89% | residual activity [12] 75% | residual activity [13] 83% | residual activity [14] 91% | residual activity [15] 100% | residual activity [16] 73% | residual activity [17] 89% | residual activity [18] 83% | residual activity [19] 100% | residual activity [20] 91% | residual activity [21] 95% | residual activity [22] 72% | residual activity [23] 100% | residual activity [24] 71% | residual activity [25] 100% | inhibition [26] 7.27% | residual activity [27] 71% | inhibition [28] -8.85% | inhibition [29] 7.37% | inhibition [30] 1.43% | residual activity [31] 100% | residual activity [32] 100% | residual activity [33] 82% | inhibition [34] -7.32% | residual activity [35] 100% | residual activity [36] 80% | residual activity [37] 100% | residual activity [38] 100% | residual activity [39] 91%
